“Also recorded” adds a separate entry of the source.

For one series, the system named is OVCA429 cells. Kind of series: colony formation assay, control and ARID1A CRISPR OVCA429 cells. The format is cell-based, human. The settings on record: 1.25 μM. As for the experimental part:
FIG. 72 illustrates control and ARID1A CRISPR OVCA429 cells treated with or without 1.25 μM ACY1215 in a colony formation assay.
FIG. 73 illustrates the quantification of ARID1A CRISPR OVCA429 cells treated with or without 1.25 μM ACY1215 in a colony formation assay; n=4 independent experiments.
Generation of ARID1A CRISPR OVCA429 cells. OVCA429 cells were transfected with CRISPR-ARID1A (pSpCas9(BB)-2A-Puro (PX459)). The ARID1A gRNA sequence is: 5′-[…]-3′ (SEQ ID NO:33). Fugene6 transfection reagent (Promega) was used as per manufacturer's specifications. Clonal populations for the loss of ARID1A expression were screened through immunoblot.
(§1) Colony formation assays were performed as follows. Cell lines were infected with lentivirus pLKO.1-shRNAs or pLKO.1-control with puromycin selection marker. Infected cells were selected with 1 μg/mL of puromycin for 72 hours and the selected cells were seeded in 12-well or 24-well plates. Cell medium was changed every three days with appropriate drug doses for 14 days or until control wells became confluent. Colonies were washed twice with PBS and fixed with 10% methanol and 10% acetic acid in distilled water. Fixed colonies were stained with 0.005% crystal violet. Integrated density was measured using NIH ImageJ software.

The test system of series [1] is ARID1A-mutated TOV21G cells. Kind of series: apoptosis and growth inhibition with or without p53 knockdown, TOV21G. The format is cell-based, human. The method, then:
Growth inhibition was calculated based on integrated density as measured in NIH ImageJ, and values were normalized to vehicle control. Data is representative of 3 independent experiments. Error bars represent S.E.M. The p-value was calculated via two-tailed t-test.
FIG. 91 illustrates dose responsive curves of the indicated cells treated with the HDAC6 inhibitor ACY1215; ARID1A wildtype RMG1 and OVCA429 cells were used as controls for comparison; n=4 independent experiments; error bars represent S.E.M. P-value calculated via two-tailed t-test.
FIG. 92 illustrates ARID1A-mutated TOV21G with or without p53 knockdown treated with ACY1215 (1.25 μM) or DMSO controls for 48 hours; percent apoptosis was quantified by FACS analysis based on Annexin V staining; n=3 independent experiments.
FIG. 97 illustrates ARID1A-mutated TOV21G cells with or without endogenous p53 knockdown by a shp53 that targets the 3′ UTR […] region of the human TP53 gene together with a lentivirus encoding a control, wildtype p53 or a p53K12OR mutant—the percentage of surviving cells of the indicated cells treated with ACY1215 was determined by colony formation assay; n=4 independent experiments.
Annexin V and mitochondria membrane potentials were measured as follows. Phosphatidylserine externalization was detected using an Annexin V staining kit (Life Technologies) following the manufacturer's instructions. […]

The conditions of series [2]: clinical trials for hematopoietic malignancies; Santo et al. Blood 2012; cited from earlier work.
For series [3], the system named is ARID1A-mutated OVISE cells. Kind of series: growth inhibition with or without p53 knockdown, OVISE. The series is classed as cell-based, human. As for the experimental part:
Growth inhibition was calculated based on integrated density as measured in NIH ImageJ, and values were normalized to vehicle control. Data is representative of 3 independent experiments. Error bars represent S.E.M. p-value calculated via two-tailed t-test.
as §1

The test system of series [4] is p53 acetylation (lysine 120, 373, 382) in ARID1A-mutated TOV21G cells. Kind of series: immunoblot of p53 acetylation, TOV21G. To be noted: 1.25 μM. The series is classed as cell-based, human. As for the experimental part: Expression of the indicated proteins was determined by immunoblot. GAPDH expression was used as a loading control.
For immunoblotting, protein was isolated as described in Bitler et al. Nat. Med. 2015, 21, 231-238. Briefly, protein was extracted with RIPA buffer (150 mM NaCl, 1% NP40, 0.5% sodium deoxycholate, 0.1% SDS, 50 mM Tris pH 8.0, and 1 mM PMSF). Protein was separated on a SDS-PAGE and transferred to PVDF membrane. For immunoblot of p53 post-translation modifications, cells were treated with a proteasome inhibitor MG132 (10 μM) to stabilize p53 protein.

The test system of series [5] is Arid1a−/−/Pik3caH1047R clear cell ovarian tumours. Kind of series: Arid1a−/−/Pik3caH1047R genetic clear cell ovarian tumour mouse model. The series is classed as in vivo, mice. The settings on record: 50 mg/kg, 21 days. The text has this: Arid1a−/−/Pik3caH1047R genetic clear cell ovarian tumour mouse model. All experiments were approved by IACUC. Transgenic mice with latent mutations in Arid1a and Pik3ca were generated by crossing Arid1aflox/floxmice (kindly provided by Dr. Wang, U. Michigan and crossed onto a C57BL/6J background for 9 generations) with R26-Pik3caH1047R mice carrying inducible Pik3ca mutations (Jackson Laboratory, Jax #016977). Gao et al, 2008, Proc Natl Acad Sci USA 105, 6656-6661. Administration of intrabursal adeno-Cre, performed as previously reported, Scarlett et al. 2012, J Exp Med 209, 495-506, induce ovarian clear cell carcinoma in ˜45 days, which is similar to a previous report. All mice were maintained in specific pathogen-free barrier facilities. To induce tumorigenesis, 6-10 weeks old Pik3caH1047R/Arid1aflox/flox female mice were intrabursally injected adenovirus-Cre as previously described. Mice were randomized and treated with ACY1215 (50 mg/kg) or vehicle control for 21 days as previously published. Following treatment mice were sacrificed and the reproductive tracts were removed. The changes in volumes of tumours formed on the injected ovary were calculated against the contrary side non-injected ovary from the same mice.

Regarding `O=C(CCCCCCNC(=O)c1cnc(N(c2ccccc2)c2ccccc2)nc1)NO` [rocilinostat, 2-(diphenylamino)-N-(7-(hydroxyamino)-7-oxoheptyl)pyrimidine-5-carboxamide], in the series on OVCA429 cells, the “effect of ARID1A knockout on sensitivity” value is “significantly increased the sensitivity”. For the same compound, the “effect of p53 knockdown on apoptosis and growth inhibition induced by the compound” value in series [1] is “significantly impaired the apoptosis and growth inhibition”. The “rescue of p53 knockdown-mediated impairment of compound-induced growth inhibition” value in series [1] (wildtype p53 or p53K120R) was “wildtype p53 but not the p53K120R mutant rescued”. The “tolerability in clinical studies” value in series [2] is “well-tolerated without a dose-limiting toxicity; also recorded: well-tolerated and show minimal toxicity”. In addition, the “effect of p53 knockdown on apoptosis and growth inhibition induced by the compound” value in series [3] was “significantly impaired the apoptosis and growth inhibition”. In series [4], the “acetylation status of lysine 373 or 382 residue of p53” value was “unchanged” and the p53K120Ac level entry was “upregulated”. In addition, the tumour growth entry in series [5] was “significantly suppressed the tumour growth”.

These data come from patent US20190192521A1, “Methods of Treating Arid1A-Mutated Cancers With HDAC6 Inhibitors and EZH2 Inhibitors” (The Wistar Institute of Anatomy and Biology, priority 2016, published 2019).
